Measurements reported in patent US20260035367A1 (Celgene Corporation, priority 2021, published 2026).
Where two headings read alike, the source gives them in different places.

Columns and labels:
[1] = target: T1, Recombinant human PKC-delta (His-tagged 345-676) (Homo sapiens, UniProt Q05655); experiment: PKC-delta inhibition assay (HTRF KinEASE kit); format: biochemical; conditions: ratio, PKC-theta vs PKC-delta HTRF; for PKC-theta/PKC-delta selectivity (binned): binned A to G
T1 construct: PKC-delta (His-tagged 345-676); His
T1 sequence (Q05655 345-676): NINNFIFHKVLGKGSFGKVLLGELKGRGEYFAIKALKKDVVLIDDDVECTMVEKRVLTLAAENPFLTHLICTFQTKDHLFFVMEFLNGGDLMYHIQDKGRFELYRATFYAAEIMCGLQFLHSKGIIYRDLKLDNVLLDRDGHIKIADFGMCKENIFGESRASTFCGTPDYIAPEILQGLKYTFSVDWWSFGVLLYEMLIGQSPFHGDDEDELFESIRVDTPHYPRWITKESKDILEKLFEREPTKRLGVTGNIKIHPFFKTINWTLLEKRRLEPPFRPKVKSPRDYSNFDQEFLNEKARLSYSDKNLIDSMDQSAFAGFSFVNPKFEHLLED

[2] = system: IL-2 secretion by human effector memory T cells (TEM); experiment: Effector memory T cells IL-2 release assay (CD3/CD28 stimulation, HTRF IL-2 detection); format: cell-based; conditions: 24 h; for IC50: Homo sapiens, T-cell
Procedure: Test compound-mediated inhibition of NFκB signalling in T cells was assessed by quantification of the IL-2 secretion by human effector memory T cells (TEM) upon treatment and stimulation. Human TEM cells were isolated from buffy coats of healthy donors obtained from the French blood bank.
Finally, 10 doses of test compound, originally prepared in DMSO by serial semi-log step dilution, were also added to cells in triplicate wells. Final DMSO concentration in wells was 0.1% in a total volume of 100 μL complete medium. Plates were incubated for 24 h at 37° C. in 5% CO2 atmosphere. After incubation, cell suspensions were centrifuged at 400×g and culture supernatants were recovered and stored at −80° C. […] IL-2 levels were determined in cell supernatants using an HTRF human IL-2 detection kit (Cisbio, cat #62HIL02PEH).

[3] = target: T2, Recombinant human PKC-theta (His-tagged 362-706) (Homo sapiens, UniProt Q04759); experiment: PKC-theta inhibition assay (HTRF KinEASE kit); format: biochemical; conditions: ATP 6.5 μM, STK substrate 525 nM
T2 construct: Recombinant human PKC-theta (His-tagged 362-706); His
T2 sequence (Q04759 362-706): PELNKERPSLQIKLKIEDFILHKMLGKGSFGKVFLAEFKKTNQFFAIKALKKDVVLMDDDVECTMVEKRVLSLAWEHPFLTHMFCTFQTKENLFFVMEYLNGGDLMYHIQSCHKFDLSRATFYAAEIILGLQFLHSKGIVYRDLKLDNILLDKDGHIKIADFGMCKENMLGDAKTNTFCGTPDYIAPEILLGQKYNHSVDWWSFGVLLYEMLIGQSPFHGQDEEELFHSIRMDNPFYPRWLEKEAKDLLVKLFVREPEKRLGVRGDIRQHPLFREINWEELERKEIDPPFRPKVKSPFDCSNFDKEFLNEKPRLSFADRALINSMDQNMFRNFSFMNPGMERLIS
Procedure: PKC-theta and PKC-delta biochemical activities were measured using the PKC-theta HTRF KinEASEkit kit, according to manufacturer's instructions (Cisbio, catalogue number 61ST1PEJ). Briefly, the kinase buffer component of the kit was supplemented with 10 mM MgCl2, 1 mM DTT and 0.1% Tween 20. […] The streptavidin_XL665 and STK antibody-cryptate detection reagents were mixed according to the manufacturer's instructions. Test compounds were diluted in DMSO in a series of 10 semi-log step doses; 10 nL of each compound dose were dispensed in 384 well plates. […] The reaction was started by addition of the substrate and ATP and incubated at 25° C. for 30 minutes or 20 minutes for the PKC-theta and PKC-delta assays, respectively. The detection reagents were added, and the plate was incubated in the dark for 2 hours. […] The ratio of acceptor and donor emission signals was calculated for each well. Percent inhibition values were calculated from the HTRF ratios at different doses and fitted to a 4-parameter logistic curve to determine IC50 values (see Table 2).

[4] = binned A to G, read-out: PKC-theta IL2 pIC50 (binned) (converted)
[5] = read-out: PKC-theta IL2 pIC50 (converted)
[6] = binned A to H, read-out: PKC-theta HTRF pIC50 (binned) (converted)
[7] = read-out: PKC-theta HTRF pIC50 (converted)

Compound | PKC-theta/PKC-delta selectivity [1] | PKC-theta/PKC-delta selectivity (binned) [1] | IC50 [2, 4] | IC50 [2, 5] | IC50 [3, 6] | IC50 [3, 7] | PKC-theta IL2 pIC50 (binned) ([2]; binned A to G) | PKC-theta IL2 pIC50 [2]
C[C@@H]1CNC[C@@H](C)N1c1cc(C(F)(F)F)cc(-c2ccnc3c2C(C)(C)C(=O)N3)n1 [Example 180] | 28 | C (a ratio of between 20 and 30) | 316 to 1000 nM | 631 nM | 1 to 3.16 nM | 2 nM | – | –
C[C@@H]1CNCCN1c1cc(C(F)(F)F)cc(-c2c(F)cnc3c2C(C)(C)C(=O)N3)n1 [Example 156] | 12 | D (a ratio of between 10 and 20) | 100 to 316 nM | 126 nM | 10 to 31.6 nM | 12.6 nM | – | –
C[C@@H]1CCN(c2cc(C(F)(F)F)cc(-c3ccnc4c3C(C)(C)C(=O)N4)n2)CCN1 [Example 184] | 20 | C (a ratio of between 20 and 30) | 100 to 316 nM | 251 nM | 10 to 31.6 nM | 10 nM | – | –
CC1(C)C(=O)Nc2nccc(-c3cc(C(F)(F)F)cc(NC4CCNC4)n3)c21 (stereo not drawn) [Example 100] | 30 | B (a ratio of between 30 and 50) | > 1000 nM | 5010 nM | 31.6 to 100 nM | 63.1 nM | – | –
CO[C@]1(C)C(=O)Nc2nccc(-c3cc(C(C)(F)F)cc(N4CCNC[C@H]4C)n3)c21 (single isomer, unassigned) [Example 193] | 16 | D (a ratio of between 10 and 20) | 31.6 to 100 nM | 79.4 nM | 3.16 to 10 nM | 10 nM | – | –
O=c1[nH]c2nccc(-c3cc(N4CCNCC4)ccn3)c2[nH]1 [Example 16] | 1 | G (a ratio of 0 to 1) | > 1000 nM | 10000 nM | > 1000 nM | 6310 nM | – | –
COC1(C)C(=O)Nc2nccc(-c3cc(Cl)cc(N4CCN[C@@H](C)C4)n3)c21 (stereo partly drawn) [Example 115] | 12 | D (a ratio of between 10 and 20) | 100 to 316 nM | 158 nM | 3.16 to 10 nM | 10 nM | – | –
C[C@H]1CN(c2cc(Cl)cc(-c3ccnc4c3C(C)(O)C(=O)N4)n2)CCN1 (stereo partly drawn) [Example 208] | 12 | D (a ratio of between 10 and 20) | 10 to 31.6 nM | 20 nM | 1 to 3.16 nM | 2 nM | – | –
CC1(C)C(=O)Nc2nccc(-c3cccc(OC4CCNCC4)c3)c21 [Example 47] | 2 | F (a ratio of between 1 and 5) | > 1000 nM | 2510 nM | 100 to 316 nM | 316 nM | – | –
CC1(C)C(=O)Nc2nccc(-c3cccc(S(=O)(=O)N4CCNCC4)c3)c21 [Example 42] | 1 | F (a ratio of between 1 and 5) | > 1000 nM | 10000 nM | > 1000 nM | 2000 nM | – | –
CC1(C)C(=O)Nc2nccc(-c3cc(F)cc(N4CCNCC4)c3)c21 [Example 29] | 1 | F (a ratio of between 1 and 5) | 316 to 1000 nM | 501 nM | 31.6 to 100 nM | 31.6 nM | – | –
CC1(C)C(=O)Nc2ncc(Cl)c(-c3cc(F)cc(N4CCNCC4)c3)c21 [Example 79] | 2 | F (a ratio of between 1 and 5) | 316 to 1000 nM | 794 nM | 31.6 to 100 nM | 39.8 nM | – | –
CC[C@H]1CN(c2cc(Cl)cc(-c3ccnc4c3[C@@](C)(OC)C(=O)N4)n2)CCN1 (single isomer, unassigned) [Example 151] | 15 | D (a ratio of between 10 and 20) | – | 126 nM | 10 to 31.6 nM | 12.6 nM | E (a measured pIC50 of between 6.5 and 7.0) | –
CC1(C)C(=O)Nc2nccc(-c3cccc(N4CCNCC4)c3Cl)c21 [Example 48] | 1 | G (a ratio of 0 to 1) | > 1000 nM | 10000 nM | > 1000 nM | 1580 nM | – | –
C[C@H]1CNCCN1c1cc(C(F)(F)F)cc(-c2ccnc3c2[C@](C)(O)C(=O)N3)n1 (single isomer, unassigned) [Example 93] | 12 | D (a ratio of between 10 and 20) | 100 to 316 nM | 126 nM | 10 to 31.6 nM | 12.6 nM | – | –
O=c1[nH]c2nccc(-c3cc(F)cc(N4CCNCC4)c3)c2[nH]1 [Example 7] | 2 | F (a ratio of between 1 and 5) | > 1000 nM | 2510 nM | 100 to 316 nM | 100 nM | – | –
C[C@@H]1CN(c2cc(C(F)(F)F)cc(-c3ccnc4c3C(C)(C)C(=O)N4)n2)CCCN1 [Example 186] | 22 | C (a ratio of between 20 and 30) | 31.6 to 100 nM | 50.1 nM | 3.16 to 10 nM | 6.31 nM | – | –
CC[C@]1(C)C(=O)Nc2nccc(-c3cc(C(C)(F)F)cc(N4CCN[C@@H](C)C4)n3)c21 (single isomer, unassigned) [Example 199] | 16 | D (a ratio of between 10 and 20) | 10 to 31.6 nM | 25.1 nM | 1 to 3.16 nM | 1.58 nM | – | –
CC[C@]1(C)C(=O)Nc2nccc(-c3cc(Cl)cc(N4CCNC[C@H]4C)n3)c21 (single isomer, unassigned) [Example 165] | 12 | D (a ratio of between 10 and 20) | 31.6 to 100 nM | 63.1 nM | 3.16 to 10 nM | 6.31 nM | – | –
CC1(C)C(=O)Nc2nccc(-c3ccnc(N4CCNCC4)c3)c21 [Example 28] | 1 | G (a ratio of 0 to 1) | > 1000 nM | 10000 nM | > 1000 nM | 1260 nM | – | –
C[C@@H]1CNCCN1c1cc(C(F)(F)F)cc(-c2ccnc3c2C(C)(C)C(=O)N3)n1 [Example 102] | 14 | D (a ratio of between 10 and 20) | 10 to 31.6 nM | 20 nM | 1 to 3.16 nM | 1.58 nM | – | –
CC1C(=O)Nc2nccc(-c3cc(N4CCNCC4)cc(C(F)(F)F)c3)c21 (stereo not drawn) [Example 25] | 7 | E (a ratio of between 5 and 10) | 316 to 1000 nM | 501 nM | 31.6 to 100 nM | 50.1 nM | – | –
C[C@H]1CNCCN1c1cc(C(F)(F)F)cc(-c2ccnc3c2C(C)(C)C(=O)N3)n1 [Example 101] | 12 | D (a ratio of between 10 and 20) | 31.6 to 100 nM | 100 nM | 3.16 to 10 nM | 6.31 nM | – | –
CC1(O)C(=O)Nc2nccc(-c3cc(N4CCNCC4)cc(C(F)(F)F)c3)c21 (stereo not drawn) [Example 56] | 14 | D (a ratio of between 10 and 20) | 316 to 1000 nM | 794 nM | 10 to 31.6 nM | 20 nM | – | –
COC[C@@H]1CN(c2cc(C(F)(F)F)cc(-c3ccnc4c3C(C)(C)C(=O)N4)n2)CCN1 [Example 120] | 15 | D (a ratio of between 10 and 20) | 316 to 1000 nM | 501 nM | 10 to 31.6 nM | 25.1 nM | – | –
C[C@H]1CN(c2cc(-c3ccnc4c3[C@@](C)(O)C(=O)N4)cc(C(F)(F)F)c2)CCN1 (single isomer, unassigned) [Example 81] | 9 | E (a ratio of between 5 and 10) | – | – | 10 to 31.6 nM | 25.1 nM | E (a measured pIC50 of between 6.5 and 7.0) | 6.7
